Reference: publication PMC7375528, “Piperidine scaffold as the novel P2-ligands in cyclopropyl-containing HIV-1 protease inhibitors: Structure-based design, synthesis, biological evaluation and docking study” (PLoS ONE, 2020)

Key:
wild-type HIV-1 PR = target: T1, wild-type HIV-1 PR (Human immunodeficiency virus type 1 group M subtype B, UniProt P04585); assay: In vitro HIV-1 PR activity assay (FRET); type: biochemical
T1 construct: HIV-1 protease was cloned and heterologously expressed in Escherichia coli and purified; made in house; host or cells: Escherichia coli
Procedure: (§1) The inhibitory effect of all new designed inhibitors were measured using fluorescence resonance energy transfer (FRET) method. […] The energy transfer donor (EDANS) and acceptor (DABCYL) dyes are labeled at two ends of the peptide to perform FRET. Excitation and emission wavelengths were set at 340 nm and 490 nm. Inhibitors were dissolved in dimethylsulfoxide (DMSO) and diluted to appropriate concentrations. HIV-1 protease was cloned and heterologously expressed in Escherichia coli and purified. The experiment was carried out in 96-well plates. The FRET assay reaction buffer contained 0.1 M sodium acetate, 1 M sodium chloride, 1 mM ethylenediaminetetraacetic acid (EDTA), 1 mM dithiothreitol (DTT), 2% DMSO and 1 mg/mL bovine serum albumin (BSA) with an adjusted pH 4.7. Protease and inhibitor were mixed and incubated for 20–30 mins at room temperature and then the substrate was added. Each reaction was recorded for about 10 mins. From plots of concentration versus the calculated percent inhibition, IC50 values were determined.
as §1, with “20-30” for “20–30”, “mins.” for “mins. From plots of concentration versus the calculated percent inhibition, IC50 values were determined.”

[1] = Cytotoxicity assay (cell counting kit-8); type: cell-based; details: human; 293T cells, CCK-8, 24h exposure
Procedure: Selected inhibitors were further evaluated in cytotoxicity assay using a cell counting kit-8 assay. […] After 24h of culture, 1μL of drugs were added to each well. After another 24h of culture, 10 μL of CCK-8 was added to each well. Absorbance was quantified at wavelength 450 nm using an EnVision multilabel reader (PerkinElmer) after 2h at room temperature.

Row | SMILES | melting point | IC50 (wild-type HIV-1 PR) | CC50 at 24 h [1]
1 | O=C(N[C@@H](Cc1ccccc1)[C@H](O)CN(C1CC1)S(=O)(=O)c1ccc([N+](=O)[O-])cc1)[C@H]1CCCNC1 [23c, (S)-N-((2S,3R)-4-((N-cyclopropyl-4-nitrophenyl)sulfonamido)-3-hydroxy-1-phenylbutan-2-yl)piperidine-3-carboxamide] | 155.9 to 157.2 °C | 483 ± 103 nM | 
2 | COc1ccc(S(=O)(=O)N(C[C@@H](O)[C@H](Cc2ccccc2)NC(=O)[C@H]2CCCN(C)C2)C2CC2)cc1 [25a, (S)-N-((2S,3R)-4-((N-cyclopropyl-4-methoxyphenyl)sulfonamido)-3-hydroxy-1-phenylbutan-2-yl)-1-methylpiperidine-3-carboxamide] | 88.9 to 91.2 °C | 283 ± 36.4 nM | 
3 | CN1CCC[C@H](C(=O)N[C@@H](Cc2ccccc2)[C@H](O)CN(C2CC2)S(=O)(=O)c2ccc([N+](=O)[O-])cc2)C1 [25c, (S)-N-((2S,3R)-4-((N-cyclopropyl-4-nitrophenyl)sulfonamido)-3-hydroxy-1-phenylbutan-2-yl)-1-methylpiperidine-3-carboxamide] | 133.2 to 134.8 °C | 523 ± 104 nM | 
4 | CN1CCC[C@@H](C(=O)N[C@@H](Cc2ccccc2)[C@H](O)CN(C2CC2)S(=O)(=O)c2ccc(N)cc2)C1 [24d, (R)-N-((2S,3R)-4-((4-amino-N-cyclopropylphenyl)sulfonamido)-3-hydroxy-1-phenylbutan-2-yl)-1-methylpiperidine-3-carboxamide] | 75.8 to 77.3 °C | 16.3 ± 9.54 nM | > 100 µM
5 | COc1ccc(S(=O)(=O)N(C[C@@H](O)[C@H](Cc2ccccc2)NC(=O)CN2CCCCC2)C2CC2)cc1 [27a, N-((2S,3R)-4-((N-cyclopropyl-4-methoxyphenyl)sulfonamido)-3-hydroxy-1-phenylbutan-2-yl)-2-(piperidin-1-yl)acetamide] | 63.6 to 65.8 °C | 228 ± 45 nM | 
6 | CN1CCC[C@@H](C(=O)N[C@@H](Cc2ccccc2)[C@H](O)CN(C2CC2)S(=O)(=O)c2ccc([N+](=O)[O-])cc2)C1 [24c, (R)-N-((2S,3R)-4-((N-cyclopropyl-4-nitrophenyl)sulfonamido)-3-hydroxy-1-phenylbutan-2-yl)-1-methylpiperidine-3-carboxamide] | 159.9 to 161.2 °C | 39.5 ± 11.9 nM | 
7 | O=C(N[C@@H](Cc1ccccc1)[C@H](O)CN(C1CC1)S(=O)(=O)c1ccc(C(F)(F)F)cc1)[C@H]1CCCNC1 [23b, (S)-N-((2S,3R)-4-((N-cyclopropyl-4-(trifluoromethyl)phenyl)sulfonamido)-3-hydroxy-1-phenylbutan-2-yl)piperidine-3-carboxamide] | 236.5 to 238.4 °C | 264 ± 69.1 nM | 
8 | O=C(N[C@@H](Cc1ccccc1)[C@H](O)CN(C1CC1)S(=O)(=O)c1ccc([N+](=O)[O-])cc1)C1CCNCC1 [26c, N-((2S,3R)-4-((N-cyclopropyl-4-nitrophenyl)sulfonamido)-3-hydroxy-1-phenylbutan-2-yl)piperidine-4-carboxamide] | 186.2 to 187.7 °C | 268 ± 37.8 nM | 
9 | Nc1ccc(S(=O)(=O)N(C[C@@H](O)[C@H](Cc2ccccc2)NC(=O)[C@H]2CCCNC2)C2CC2)cc1 [23d, (S)-N-((2S,3R)-4-((4-amino-N-cyclopropylphenyl)sulfonamido)-3-hydroxy-1-phenylbutan-2-yl)piperidine-3-carboxamide] | 77.8 to 79.4 °C | 313 ± 58.1 nM | 
10 | CN1CCC[C@H](C(=O)N[C@@H](Cc2ccccc2)[C@H](O)CN(C2CC2)S(=O)(=O)c2ccc(N)cc2)C1 [25d, (S)-N-((2S,3R)-4-((4-amino-N-cyclopropylphenyl)sulfonamido)-3-hydroxy-1-phenylbutan-2-yl)-1-methylpiperidine-3-carboxamide] | 76.8 to 78.5 °C | 236 ± 36.5 nM | 
11 | O=C(N[C@@H](Cc1ccccc1)[C@H](O)CN(C1CC1)S(=O)(=O)c1ccc(C(F)(F)F)cc1)C1CCNCC1 [26b, N-((2S,3R)-4-((N-cyclopropyl-4-(trifluoromethyl)phenyl)sulfonamido)-3-hydroxy-1-phenylbutan-2-yl)piperidine-4-carboxamide] | 243.3 to 245.1 °C | 124 ± 27.6 nM | 
12 | O=C(N[C@@H](Cc1ccccc1)[C@H](O)CN(C1CC1)S(=O)(=O)c1ccc([N+](=O)[O-])cc1)[C@@H]1CCCNC1 [22c, (R)-N-((2S,3R)-4-((N-cyclopropyl-4-nitrophenyl)sulfonamido)-3-hydroxy-1-phenylbutan-2-yl)piperidine-3-carboxamide] | 196.8 to 198.4 °C | 17 ± 8.12 nM | > 100 µM
13 | CN1CCC[C@H](C(=O)N[C@@H](Cc2ccccc2)[C@H](O)CN(C2CC2)S(=O)(=O)c2ccc(C(F)(F)F)cc2)C1 [25b, (S)-N-((2S,3R)-4-((N-cyclopropyl-4-(trifluoromethyl)phenyl)sulfonamido)-3-hydroxy-1-phenylbutan-2-yl)-1-methylpiperidine-3-carboxamide] | 102.7 to 104.6 °C | 110 ± 27.2 nM | 
14 | COc1ccc(S(=O)(=O)N(C[C@@H](O)[C@H](Cc2ccccc2)NC(=O)C2CCNCC2)C2CC2)cc1 [26a, N-((2S,3R)-4-((N-cyclopropyl-4-methoxyphenyl)sulfonamido)-3-hydroxy-1-phenylbutan-2-yl)piperidine-4-carboxamide] | 219.9 to 221.3 °C | 155 ± 15.1 nM | 
15 | COc1ccc(S(=O)(=O)N(C[C@@H](O)[C@H](Cc2ccccc2)NC(=O)[C@H]2CCCNC2)C2CC2)cc1 [23a, (S)-N-((2S,3R)-4-((N-cyclopropyl-4-methoxyphenyl)sulfonamido)-3-hydroxy-1-phenylbutan-2-yl)piperidine-3-carboxamide] | 92.9 to 94.7 °C | 433 ± 97.5 nM | 
16 | O=C(CN1CCCCC1)N[C@@H](Cc1ccccc1)[C@H](O)CN(C1CC1)S(=O)(=O)c1ccc(C(F)(F)F)cc1 [27b, N-((2S,3R)-4-((N-cyclopropyl-4-(trifluoromethyl)phenyl)sulfonamido)-3-hydroxy-1-phenylbutan-2-yl)-2-(piperidin-1-yl)acetamide] | 72.3 to 75.2 °C | 52.7 ± 14.7 nM | 
17 | Nc1ccc(S(=O)(=O)N(C[C@@H](O)[C@H](Cc2ccccc2)NC(=O)[C@@H]2CCCNC2)C2CC2)cc1 [22d, (R)-N-((2S,3R)-4-((4-amino-N-cyclopropylphenyl)sulfonamido)-3-hydroxy-1-phenylbutan-2-yl)piperidine-3-carboxamide] | 216.5 to 218.3 °C | 10.1 ± 6.71 nM | > 100 µM
18 | Nc1ccc(S(=O)(=O)N(C[C@@H](O)[C@H](Cc2ccccc2)NC(=O)CN2CCCCC2)C2CC2)cc1 [27d, N-((2S,3R)-4-((4-amino-N-cyclopropylphenyl)sulfonamido)-3-hydroxy-1-phenylbutan-2-yl)-2-(piperidin-1-yl)acetamide] | 144.4 to 146.2 °C | 34.7 ± 12.5 nM | 
19 | Nc1ccc(S(=O)(=O)N(C[C@@H](O)[C@H](Cc2ccccc2)NC(=O)C2CCNCC2)C2CC2)cc1 [26d, N-((2S,3R)-4-((4-amino-N-cyclopropylphenyl)sulfonamido)-3-hydroxy-1-phenylbutan-2-yl)piperidine-4-carboxamide] | 204.7 to 206.5 °C | 245 ± 39.8 nM | 
20 | O=C(N[C@@H](Cc1ccccc1)[C@H](O)CN(C1CC1)S(=O)(=O)c1ccc(C(F)(F)F)cc1)[C@@H]1CCCNC1 [22b, (R)-N-((2S,3R)-4-((N-cyclopropyl-4-(trifluoromethyl)phenyl)sulfonamido)-3-hydroxy-1-phenylbutan-2-yl)piperidine-3-carboxamide] | 204.8 to 206.3 °C | 8.35 ± 5.58 nM | > 100 µM
21 | O=C(CN1CCCCC1)N[C@@H](Cc1ccccc1)[C@H](O)CN(C1CC1)S(=O)(=O)c1ccc([N+](=O)[O-])cc1 [27c, N-((2S,3R)-4-((N-cyclopropyl-4-nitrophenyl)sulfonamido)-3-hydroxy-1-phenylbutan-2-yl)-2-(piperidin-1-yl)acetamide] | 82.9 to 84.1 °C | 288 ± 62 nM | 
